In a melting point compilation (Tetko et al.; mined from patent text by program, amines drawn as free bases though some values may be those of a salt):

Row | Compound | melting point [°C]
1 | COc1ccc([N+](=O)[O-])c(/C=C/c2cc(/C=C/c3ccc4cc[nH]c4c3)n[nH]2)c1 | 104 to 109
2 | COc1ccc(-c2ccc(Cl)nn2)c(O)c1 | 156 to 157
3 | O=S1(=O)NCN(CCF)c2cc(F)c(F)cc21 | 128 to 130
4 | COc1cc(O)ccc1-c1nc(C)c(-c2cccnc2)[nH]1 | 237 to 240
5 | Cc1cc(C)c(Cc2ccc(=O)[nH]n2)c(C)c1 | 125 to 127
6 | CC(C)CN1CCC(CNC(=O)c2cc(Cl)c(N)[nH]c2=O)CC1 | 128 to 133
7 | Fc1ccc(-c2cc3cccc(Cl)n3n2)cc1 | 156 to 157
8 | O=C(NCP(=O)(O)O)c1ccccc1 | 171 to 173
9 | CCOC(=O)CCCNC(=O)Cn1c(-c2cccc(Cl)c2)nc2cccnc21 | 127 to 129
10 | C#CCNCC1=Cc2cc(S(N)(=O)=O)sc2S(=O)(=O)N1C(C)C | 133 to 135
11 | CCN(CC)CCOC(=O)c1ccc(NC(=O)c2ccc(-c3ccccc3)cc2)cc1 | 146 to 149
12 | O=S(=O)(c1ccc(Cl)cc1)C(c1cc(F)ccc1F)c1cc(NCCO)ncc1Cl (centres undefined) | 168 to 169
13 | COC(=O)c1cccnc1CN1C(=O)C(NC(=O)Nc2cccc(C)c2)N=C(c2ccccc2F)c2ccccc21 (racemic) | 171 to 175
14 | NC(CCNc1ccccc1)=NO | 91 to 91.5
15 | Cc1cc(C(N)=O)ncc1C(c1c(F)ccc(F)c1F)S(=O)(=O)c1ccc(OC(F)(F)F)cc1 (centres undefined) | 219 to 220
16 | CC#CCC(CC#CC)(C(=O)O)S(=O)(=O)c1ccc(N2CCC(NC[C@H](O)c3ccc(O)c(NS(C)(=O)=O)c3)CC2)cc1 | 175 to 177
17 | CC(C)(C)OC(=O)CC(Cc1ccccc1)NC(=O)C1Cc2ccccc2N1S(=O)(=O)c1ccc(-c2cccc(C(F)(F)F)c2)cc1 (centres undefined) | 50
18 | CCCc1nc2c(N)nc3cc(OCCCNC(=O)OC(C)(C)C)ccc3c2s1 | 146 to 149
19 | COc1cc(CNc2nc(C)nc(C)c2Cl)ccc1O | 179 to 182
20 | COc1ccc(-c2ccc(C(=O)Nc3ccc4cc(CN5CCCC5)cnc4c3C)cn2)cc1 | 180 to 182
21 | O=C1CCCC(=O)N1c1cc(I)cc(I)c1 | 177 to 178
22 | COC(=O)C[C@H](O)C[C@H](O)CCc1c(-c2ccc(F)cc2)c(-c2ccccc2)c(C(=O)Nc2ccccc2)n1C(C)C | 154 to 157
23 | CCCS(=O)(=O)CC(=O)NNC(=O)N1Cc2ccccc2Oc2ccc(Cl)cc21 | 173 to 175
24 | COCC1CN(c2ccc3cc(S(N)(=O)=O)ccc3c2)C(=O)O1 (centres undefined) | 166 to 168
25 | O=C(Nc1ccc2ccc(Cl)nc2n1)c1ccc(Br)o1 | 285

Row | Compound | melting point [°C]
26 | CC(C)Oc1ccc2c(c1)OCC1c3ccccc3OC21 (centres undefined) | 100 to 102
27 | NCC1Cc2cc(Cl)cc(-c3ccoc3)c2O1 (centres undefined) | > 250
28 | c1ccc(Cn2c(N3CCCCC3)nc3ccccc32)cc1 | 84 to 87
29 | O=c1[nH]c2cc(Cl)cc(Cl)c2c(-c2cc(Cl)ccc2O)c1O | 297 to 299
30 | Nc1cnccc1Oc1ccc(Cl)cc1 | 104 to 106
31 | Clc1ccc2nnnn2n1 | 104 to 105
32 | COc1ccccc1NC(=O)Nc1nc(N2CCCCC2)nc(N(CCC(=O)O)Cc2cccc(C)c2)n1 | 91 to 92
33 | CCOC(=O)/C=C/c1ccc(OCCCOC)cc1Oc1ncc(C(F)(F)F)cc1Cl | 86.4 to 86.5
34 | Clc1nc(Nc2ccc(OCc3ccccc3)c(Cl)c2)nc(NC2CCCCCC2)n1 | 110
35 | COc1cc2c(cc1OC(C)=O)C1Cc3ccc(OC)c(OC(C)=O)c3CN1CC2 (centres undefined) | 212 to 214
36 | N#CCc1cccnc1C#N | 48 to 51
37 | O=C(O)Cn1c(-c2cccc(Br)c2)nc2cccnc21 | 247 to 249
38 | Cc1cc(C)cc(COC(=O)C(Cc2c[nH]c3ccccc23)NS(C)(=O)=O)c1 (centres undefined) | 96 to 97
39 | CC1NC(=O)NN=C1c1ccc(OCC(=O)NCCN2CCN(S(C)(=O)=O)CC2)c(Cl)c1 (centres undefined) | 236 to 238
40 | CCOC(=O)C=Cc1cccnc1OCc1ccc(OCc2nc(-c3ccco3)oc2C)c(OC)c1 | 85 to 87
41 | CCCCCCCCCNC(=O)NCC(=O)O | 144 to 145
42 | Cc1cc(NC(=O)Cc2ccsc2)nc(C)c1Br | 211
43 | c1ccc2c(CC3CCCCC3)c[nH]c2c1 | 71 to 73
44 | Cc1nc(N)c2nc(C)n(CCCNC(=O)N3CCOCC3)c2c1C | 129 to 130
45 | CN(C)c1ccc2cc(-c3ccn4ccnc4c3C#N)ccc2c1 | 268 to 269
46 | CC1(C)Oc2ccc(C#N)cc2[C@@H](N2CCN(c3ccccc3)C2=O)[C@@H]1O (relative stereo) | 205 to 206
47 | COc1nc(C)c(C)cc1[N+](=O)[O-] | 71 to 73
48 | COC(=O)c1ccc(C(=O)N2CCN(c3ncccc3[N+](=O)[O-])CC2)nc1 | 129 to 130
49 | Brc1nc2ncsc2nc1Br | 142 to 144
50 | COC(=O)/C(=N/O)c1cccc([N+](=O)[O-])c1 | 140

Row | Compound | melting point [°C]
51 | CCNC(=O)n1nc(Oc2c(Cl)cc(C(F)(F)F)cc2Cl)c(CC)c1C | 120 to 123
52 | COC(=O)C1CCn2c1cc(Cl)c2C(=O)c1ccccc1 (centres undefined) | 106
53 | COc1cc(C(=O)O)ccc1Cc1cccc2ccc(NC(=O)CC3CCCC3)cc12 | 248 to 250
54 | O=C(O)COCc1ccccc1 | 81 to 83
55 | O=C(Nc1ccc(OCCN2CCOCC2)c2ccccc12)c1cc(F)cc(N2CCOCC2)c1 | 123 to 124
56 | c1cnc2c(c1)-c1nc(NC3CCNCC3)ncc1-c1ccncc1N2 | 189 to 191
57 | NS(=O)(=O)c1ccc(-n2nc(C(F)F)cc2C2CCCCC2)cc1 | 199 to 203
58 | Cc1cc(CC2(Cc3cc(C)nc(Cl)c3)c3ccccc3-c3ncccc32)cc(Cl)n1 | 159 to 160
59 | Cc1cc(NC(=O)c2c(Cl)cccc2Cl)c2nccc(Cl)c2c1 | 203 to 205
60 | CCC(Oc1ccc([N+](=O)[O-])cc1)C(=O)NCc1ccccc1OC (centres undefined) | 109 to 112
61 | CCCCNc1cc(C(=O)O)cc(S(=O)(=O)NCCCC)c1Oc1ccccc1 | 184 to 185
62 | CCCCNC(=O)c1ncc[nH]1 | 188 to 190
63 | COC(=O)C1=C(C)NN=C(c2cccc(Cl)c2)C1c1cccc(Cl)c1 (centres undefined) | 204
64 | Cc1cc(N)c(Br)c(C)c1C | 69
65 | CCOC(=O)c1cn(CC)c2nc(C=O)c(OCC)cc2c1=O | 169 to 170
66 | CC(=O)OC(OC(C)=O)c1cccc(C(OC(C)=O)OC(C)=O)c1 | 110 to 130
67 | COCCCS(=O)(=O)NC(=O)CCc1cc(C(C)(C)C)nn1Cc1ccc(C(F)(F)F)cc1Cl | 149 to 150
68 | COCc1nc2cccnc2n1Cc1ccc(C(=O)N(C(C)C)C2CCCCC2)cc1OC | 126
69 | O=C(c1ccc(Nc2ccnc3cc(C(F)(F)F)ccc23)cc1)N1CC=C(c2ccc(Cl)cc2)CC1 | 225 to 226
70 | CCOC(=O)C(CC)Sc1nc2c([nH]1)c(=O)n(C)c(=O)n2C (centres undefined) | 175
71 | O=C(O)Cc1cccc(C(=O)c2ccc(OCc3ccc4ccccc4c3)cc2)c1 | 150 to 152
72 | CC1(C)OC(c2ccc(S(C)(=O)=O)c(F)c2)=C(c2ccc(N)cc2)C1=O | 199 to 200
73 | Fc1nc(F)c(F)c(F)n1 | 104
74 | COc1cc(Br)cc(-c2ccc3nonc3c2)c1 | 135 to 137
75 | CCOC(=O)N1CCc2nc3ccccc3c(CO)c2CC1 | 158

Row | Compound | melting point [°C]
76 | CCCOc1ccccc1-c1nc(O)cc(Cl)n1 | 116
77 | OCc1cc2c3ccccc3n(Cc3ccccc3)c2s1 | 81 to 82
78 | COc1ccc(C(=O)Nc2ccccc2)cc1NS(=O)(=O)Cc1ccccc1 | 216
79 | CCOC(=O)C1=Cc2cc(Cl)cc(I)c2OC1C(F)(F)F (centres undefined) | 92.1 to 93.9
80 | COc1cc2c(cc1Nc1ncc(Cl)c(Nc3ccccc3S(C)(=O)=O)n1)CCN(CC(=O)N(C)C)CC2 | 77 to 99
81 | CCOc1ccc(-c2ccc3c(c2)C=C(C(=O)Nc2ccc(CN(C)C4CCOCC4)cc2)CCN3C)cc1 | 150 to 152
82 | CSC1CC(=O)N1CC(=O)OCc1ccccc1 (single isomer, unassigned; (-)) | 38 to 40
83 | CC(C)(C(=O)Nc1cccc(Cl)c1)N1COC(CBr)=C(c2ccccc2)C1=O | 89.8 to 90.8
84 | CN1C(=S)N(C)C2(c3ccccc3)CCCN12 (centres undefined) | 83 to 85
85 | CC1=NN(c2ccc(C)c(C)c2)C(=O)C1=NNc1cccc(-c2cccc(P(=O)(O)O)c2)c1O | 144 to 149
86 | CC(O)c1cnc2cc(Oc3cc(-c4ccc(C(F)(F)F)cc4)ncn3)ccc2c1 (centres undefined) | 156 to 157
87 | C=CCn1nc(C)c(C(=O)c2ccc(Cl)cc2Cl)c1OS(=O)(=O)c1ccc(C)cc1 | 113 to 114
88 | CC(=O)OCC1OC(n2c(Br)c(C=O)c3cc(Cl)c(Cl)cc32)C(O)C1O (centres undefined) | 159 to 160
89 | CCCc1c2nc(C(=O)OCC)cc(OCC)c2cc2c(=O)cc(C(=O)OCC)oc12 | 190 to 192
90 | CCCCNC(=O)C(O[Si](C)(C)C(C)(C)C)C(c1ccccc1)c1ccccc1 (centres undefined) | 73 to 74
91 | CC1(C)COC(c2cc(I)cc(C(F)(F)F)c2)=N1 | 73 to 74.5
92 | COc1ccc(S(=O)(=O)N2CCc3cccc(-c4ccc(Cl)cc4)c32)cc1 | 177 to 178
93 | Cc1ccc(-c2ccc(-c3nnn(CCCCCCc4cccnc4)n3)cc2)cc1C | 63 to 64
94 | CCCSC(C)c1c(-c2ccc(S(C)(=O)=O)cc2)cnn(-c2ccc(F)cc2)c1=O (centres undefined) | 45 to 60
95 | Cn1c(CCC(=O)O)ccc1C(=O)c1ccc(Cl)cc1 | 188 to 191
96 | CCCC(CCC)n1c(CC)nc2c1C(=O)N(C)C(C)N2c1ccc(Cl)cc1Cl (centres undefined) | 144 to 146
97 | CC(C)N(O)C(=O)c1c(Cl)cccc1[Si](C)(C)C | 175 to 179
98 | CCSc1cc(C)nc(SCC)c1NC(=O)CN1CCN(CCSc2nc3ccc(COC)c(COC)c3o2)CC1 | 118 to 120
99 | O=C(O)c1cn(-c2ccc(Cl)cc2)c2c(F)c(F)c(F)cc2c1=O | 117 to 118
